Data reported in patent US9023789B2, “Amylin analogs and pharmaceutical compositions thereof” (Novo Nordisk A/S, priority 2012, dated 2015).
Numbered stars: 1 amine (or outer) side, 2 acyl side, 3 side chain; on linkers, the order of the positions; unused ones are H or OH. Bridge positions count the residues as written; N and C are the ends. Side chains are listed from the residue outwards. Peptide text beside a SMILES is read from it. * marks the point of attachment. C20 diacid = O=C(O)CCCCCCCCCCCCCCCCCCC(=O)*; γGlu = O=C(O)[C@H](CCC(=O)[*:2])N[*:1]; AEEA = NCCOCCOCC(=O)O

Columns and labels:
[1] = biological target: T1, human amylin 3(a) receptor (human calcitonin receptor + RAMP-3) in BHK570 cells (Homo sapiens, UniProt O60896+P30988); assay: ASSAY (II)a functional assay, human amylin receptor (CRE luciferase); type: cell-based; conditions: for EC50: human amylin receptor functional potency, assay (II), read-out: hAmylin-R funct. EC50
T1 construct: expressed in transfected cells
Summary of the method: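 BHK CRE-luc cells, calcitonin (a) receptor ± RAMP-3 (amylin 3(a)); overnight seeding, 37° C/5% CO2. 3 h ligand exposure, DMEM/10% FBS/10 mM Hepes pH 7.4. LucLite 30 min RT; luminescence (SPC).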

[2] = ASSAY (III) ThT fibrillation assay for physical stability; type: physicochemical
Summary of the method: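 Formulations with 1 μM ThT, pH adjusted as required, incubated at 37 °C with 960 rpm orbital shaking; fluorescence (ex 444/em 485 nm) read every 20 min. Fibrillation reported as mean ThT fluorescence ± SD of 4–8 replicates at time points; polypeptide concentration measured by reverse-phase HPLC before and after, post-centrifugation.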

[3] = biological target: T2, human amylin receptor (membranes from Amylin 3(a)/CRE-luc cells) (Homo sapiens, UniProt O60896+P30988); assay: ASSAY (V) binding to the human amylin receptor (SPA, 125I-rat amylin); conditions: for IC50: Table 4, read-out: hAmylin-R bind IC50;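 on all read-outs here: competition binding of cell membranes (35 ng/µL) mixed with SPA beads in 384-well plates at 40 µL total volume, read by scintillation counting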
T2 construct: expressed in transfected cells
T2 sequence (P30988 25-474): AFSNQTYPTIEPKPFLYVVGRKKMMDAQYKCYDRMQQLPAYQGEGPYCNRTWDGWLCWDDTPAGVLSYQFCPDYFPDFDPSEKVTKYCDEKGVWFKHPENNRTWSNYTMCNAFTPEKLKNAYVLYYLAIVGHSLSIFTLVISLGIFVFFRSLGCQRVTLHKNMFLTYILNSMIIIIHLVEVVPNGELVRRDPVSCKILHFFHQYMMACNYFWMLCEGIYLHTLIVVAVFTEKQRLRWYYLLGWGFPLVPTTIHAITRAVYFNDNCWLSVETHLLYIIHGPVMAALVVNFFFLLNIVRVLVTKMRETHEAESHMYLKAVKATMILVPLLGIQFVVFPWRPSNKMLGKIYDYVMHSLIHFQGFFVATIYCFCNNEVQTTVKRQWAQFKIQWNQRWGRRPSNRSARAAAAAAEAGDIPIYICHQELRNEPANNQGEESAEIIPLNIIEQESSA
T2 sequence (O60896 24-148 partner): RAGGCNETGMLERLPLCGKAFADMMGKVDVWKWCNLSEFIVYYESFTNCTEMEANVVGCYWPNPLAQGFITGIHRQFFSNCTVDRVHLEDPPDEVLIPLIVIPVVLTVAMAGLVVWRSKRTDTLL

[4] = hCTR funct. EC50 divided by hAmylin-R funct. EC50
[5] = hCTR funct. EC50 over hAmylin-R funct. EC50
[6] = human functional selectivity: hCTR funct. EC50 / hAmylin-R funct. EC50
[7] = Table 5, selectivity, hCTR bind IC50 / hAmylin-R bind IC50
[8] = Table 5a, selectivity, hCTR bind IC50 / hAmylin-R bind IC50
[9] = Table 5b, selectivity, hCTR bind IC50 / hAmylin-R bind IC50
[10] = Table 5c, selectivity, hCTR bind IC50 / hAmylin-R bind IC50
[11] = Table 7, human binding selectivity, included for comparison
[12] = Table 7a (preferred compounds), human binding selectivity, included for comparison
[13] = ratio of human calcitonin receptor binding IC50 to human amylin receptor binding IC50

| Ratio hCT/hAmylin funct. [1, 4] | Ratio hCT/hAmylin funct. [1, 5] | EC50 [1] | Ratio hCT/hAmylin funct. [1, 6] | ThT pH 4.0 lag time (h) [2] | IC50 [3] | Ratio hCT/hAmylin binding [3, 7] | Ratio hCT/hAmylin binding [3, 8] | Ratio hCT/hAmylin binding [3, 9] | Ratio hCT/hAmylin binding [3, 10] | Ratio hCT/hAmylin binding [3, 11] | Ratio hCT/hAmylin binding [3, 12] | Ratio hCT/hAmylin binding [3, 13] | Structure (SMILES) |
| --- | --- | --- | --- | --- | --- | --- | --- | --- | --- | --- | --- | --- | --- |
| 32.5 | 32.5 | 0.169 nM | 32.5 | 45 h | 0.743 nM | 119.6 | 119.6 | 119.6 | 119.6 | 119.6 | 119.6 | 119.6 | CC[C@H](C)[C@H](NC(=O)[C@H](C)NC(=O)CNC(=O)[C@H](Cc1ccccc1)NC(=O)[C@H](CC(N)=O)NC(=O)[C@@H]1CCCN1C(=O)[C@H](CO)NC(=O)[C@H](CO)NC(=O)[C@H](Cc1c[nH]cn1)NC(=O)[C@H](CCCNC(=N)N)NC(=O)[C@H](CC(C)C)NC(=O)[C@H](Cc1ccccc1)NC(=O)[C@H](Cc1c[nH]cn1)NC(=O)[C@H](C)NC(=O)[C@H](CC(C)C)NC(=O)[C@H](CCCNC(=N)N)NC(=O)[C@H](CCC(N)=O)NC(=O)[C@@H](NC(=O)[C@H](C)NC(=O)[C@@H]1CSSC[C@H](NC(=O)[C@@H](N)CCCCNC(=O)COCCOCCNC(=O)CC[C@H](NC(=O)CCCCCCCCCCCCCCCCCCC(=O)O)C(=O)O)C(=O)N[C@@H](CC(N)=O)C(=O)N[C@@H]([C@@H](C)O)C(=O)N[C@@H](C)C(=O)N[C@@H]([C@@H](C)O)C(=O)N1)[C@@H](C)O)C(=O)N1CCC[C@H]1C(=O)N[C@@H](CO)C(=O)N[C@@H](CO)C(=O)N[C@H](C(=O)N[C@@H](CC(N)=O)C(=O)N[C@H](C(=O)NCC(=O)N[C@@H](CCCNC(=N)N)C(=O)N[C@@H](CC(N)=O)C(=O)N[C@H](C(=O)N[C@@H](Cc1ccc(O)cc1)C(N)=O)[C@@H](C)O)C(C)C)[C@@H](C)O [Example 84] (H-K([AEEA-γGlu-C20 diacid])CNTATCATQRLAHFLRHSSPNFGAIPSSTNVGRNTY-NH2; disulfide 2-7 (inferred); N-terminus assumed) |
| 26.6 | 26.6 | 0.146 nM | 26.6 | 45 h | 0.876 nM | 91.8 | 91.8 | 91.8 | 91.8 | 91.8 | 91.8 | 91.8 | CC[C@H](C)[C@H](NC(=O)[C@H](C)NC(=O)CNC(=O)[C@H](Cc1ccccc1)NC(=O)[C@H](CC(N)=O)NC(=O)[C@@H]1CCCN1C(=O)[C@H](CO)NC(=O)[C@H](CO)NC(=O)[C@H](Cc1c[nH]cn1)NC(=O)[C@H](CCCNC(=N)N)NC(=O)[C@H](CC(C)C)NC(=O)[C@H](Cc1ccccc1)NC(=O)[C@H](Cc1c[nH]cn1)NC(=O)[C@H](C)NC(=O)[C@H](CC(C)C)NC(=O)[C@H](CCCNC(=N)N)NC(=O)[C@H](CCC(N)=O)NC(=O)[C@@H](NC(=O)[C@H](C)NC(=O)[C@@H]1CSSC[C@H](NC(=O)[C@@H](N)CCCCNC(=O)CC[C@H](NC(=O)CCCCCCCCCCCCCCCCCCC(=O)O)C(=O)O)C(=O)N[C@@H](CC(N)=O)C(=O)N[C@@H]([C@@H](C)O)C(=O)N[C@@H](C)C(=O)N[C@@H]([C@@H](C)O)C(=O)N1)[C@@H](C)O)C(=O)N1CCC[C@H]1C(=O)N[C@@H](CO)C(=O)N[C@@H](CO)C(=O)N[C@H](C(=O)N[C@@H](CC(N)=O)C(=O)N[C@H](C(=O)NCC(=O)N[C@@H](CCCNC(=N)N)C(=O)N[C@@H](CC(N)=O)C(=O)N[C@H](C(=O)N[C@@H](Cc1ccc(O)cc1)C(N)=O)[C@@H](C)O)C(C)C)[C@@H](C)O [Example 85] (H-K([γGlu-C20 diacid])CNTATCATQRLAHFLRHSSPNFGAIPSSTNVGRNTY-NH2; disulfide 2-7 (inferred); N-terminus assumed) |
| 64.4 | 64.4 | 0.298 nM | 64.4 | 32 h | 0.833 nM | 159.3 | 159.3 | 159.3 | 159.3 | 159.3 | 159.3 | 159.3 | CC[C@H](C)[C@H](NC(=O)[C@H](C)NC(=O)CNC(=O)[C@H](Cc1ccccc1)NC(=O)[C@H](CC(N)=O)NC(=O)[C@@H]1CCCN1C(=O)[C@H](CO)NC(=O)[C@H](CO)NC(=O)[C@H](Cc1c[nH]cn1)NC(=O)[C@H](CCCNC(=N)N)NC(=O)[C@H](CC(C)C)NC(=O)[C@H](Cc1ccccc1)NC(=O)[C@H](CC(N)=O)NC(=O)[C@H](C)NC(=O)[C@H](CC(C)C)NC(=O)[C@H](CCCNC(=N)N)NC(=O)[C@H](CCC(N)=O)NC(=O)[C@@H](NC(=O)[C@H](C)NC(=O)[C@@H]1CSSC[C@H](NC(=O)[C@@H](N)CCCCNC(=O)CC[C@H](NC(=O)CC[C@H](NC(=O)CCCCCCCCCCCCCCCCCCC(=O)O)C(=O)O)C(=O)O)C(=O)N[C@@H](CC(N)=O)C(=O)N[C@@H]([C@@H](C)O)C(=O)N[C@@H](C)C(=O)N[C@@H]([C@@H](C)O)C(=O)N1)[C@@H](C)O)C(=O)N1CCC[C@H]1C(=O)N[C@@H](CO)C(=O)N[C@@H](CO)C(=O)N[C@H](C(=O)N[C@@H](CC(N)=O)C(=O)N[C@H](C(=O)NCC(=O)N[C@@H](Cc1c[nH]cn1)C(=O)N[C@@H](CC(N)=O)C(=O)N[C@H](C(=O)N[C@@H](Cc1ccc(O)cc1)C(N)=O)[C@@H](C)O)C(C)C)[C@@H](C)O [Example 86] (H-K([γGlu-γGlu-C20 diacid])CNTATCATQRLANFLRHSSPNFGAIPSSTNVGHNTY-NH2; disulfide 2-7) |
| 3.8 | 3.8 | 0.285 nM | 3.8 | 45 h | 0.633 nM | 35.6 | 35.6 | 35.6 | 35.6 | 35.6 | 35.6 | 35.6 | CC[C@H](C)[C@H](NC(=O)[C@H](C)NC(=O)CNC(=O)[C@H](Cc1ccccc1)NC(=O)[C@H](CC(N)=O)NC(=O)[C@@H]1CCCN1C(=O)[C@H](CO)NC(=O)[C@H](CO)NC(=O)[C@H](Cc1c[nH]cn1)NC(=O)[C@H](CCCNC(=N)N)NC(=O)[C@H](CC(C)C)NC(=O)[C@H](Cc1ccccc1)NC(=O)[C@H](CCC(=O)O)NC(=O)[C@H](C)NC(=O)[C@H](CC(C)C)NC(=O)[C@H](CCCNC(=N)N)NC(=O)[C@H](CCC(N)=O)NC(=O)[C@@H](NC(=O)[C@H](C)NC(=O)[C@@H]1CSSC[C@H](NC(=O)[C@@H](N)CCCCNC(=O)CC[C@H](NC(=O)CC[C@H](NC(=O)CCCCCCCCCCCCCCCCCCC(=O)O)C(=O)O)C(=O)O)C(=O)N[C@@H](CC(N)=O)C(=O)N[C@@H]([C@@H](C)O)C(=O)N[C@@H](C)C(=O)N[C@@H]([C@@H](C)O)C(=O)N1)[C@@H](C)O)C(=O)N1CCC[C@H]1C(=O)N[C@@H](CO)C(=O)N[C@@H](CO)C(=O)N[C@H](C(=O)N[C@@H](CC(N)=O)C(=O)N[C@H](C(=O)NCC(=O)N[C@@H](Cc1c[nH]cn1)C(=O)N[C@@H](CC(N)=O)C(=O)N[C@H](C(=O)N[C@@H](Cc1ccc(O)cc1)C(N)=O)[C@@H](C)O)C(C)C)[C@@H](C)O [Example 87] (H-K([γGlu-γGlu-C20 diacid])CNTATCATQRLAEFLRHSSPNFGAIPSSTNVGHNTY-NH2; disulfide 2-7) |
